In the CheMixHub viscosity set:
Several values for one entry are separate records, joined by “and”; a condition that tells them apart may be missing. Equal values may be shown once. ± gives the uncertainty stated by the source.

Assay: xn = mol fraction of the nth substance listed

ClC(Cl)Cl + CC(C)OC(C)C
298.15 K, 101 kPa
Settings	viscosity
x1 = 0.07	0.325 ± 0.003 mPa·s
x1 = 0.12	0.35 ± 0.003 mPa·s
x1 = 0.13	0.353 ± 0.003 mPa·s
x1 = 0.16	0.369 ± 0.004 mPa·s
x1 = 0.21	0.39 ± 0.004 mPa·s
x1 = 0.26	0.413 ± 0.004 mPa·s
x1 = 0.31	0.437 ± 0.004 mPa·s
x1 = 0.35	0.458 ± 0.004 mPa·s
x1 = 0.4	0.484 ± 0.004 mPa·s
x1 = 0.46	0.507 ± 0.005 mPa·s
x1 = 0.5	0.523 ± 0.005 mPa·s
x1 = 0.55	0.543 ± 0.005 mPa·s
x1 = 0.6	0.553 ± 0.005 mPa·s
x1 = 0.65	0.565 ± 0.005 mPa·s
x1 = 0.71	0.572 ± 0.005 mPa·s
x1 = 0.76	0.577 ± 0.005 mPa·s
x1 = 0.8	0.579 ± 0.005 mPa·s
x1 = 0.85	0.581 ± 0.005 mPa·s
x1 = 0.9	0.58 ± 0.005 mPa·s
x1 = 0.95	0.579 ± 0.005 mPa·s and 0.58 ± 0.005 mPa·s

CCCCCCCCCCCCCCCC + CCCCCC
Settings	viscosity [mPa·s]
298.09 K, 100 kPa, x1 = 0.8	2.236 ± 0.091
298.12 K, 100 kPa, x1 = 0.4	0.991 ± 0.04
298.15 K, 100 kPa, x1 = 0.6	1.518 ± 0.062
298.15 K, 101 kPa, x1 = 0.1995	0.6062 ± 0.051
298.15 K, 101 kPa, x1 = 0.3978	1.017 ± 0.11
298.15 K, 101 kPa, x1 = 0.5746	1.453 ± 0.18
298.15 K, 101 kPa, x1 = 0.8011	2.209 ± 0.34
298.15 K, 101.33 kPa, x2 = 0.1046	2.659 ± 0.032
298.15 K, 101.33 kPa, x2 = 0.1966	2.25 ± 0.027
298.15 K, 101.33 kPa, x2 = 0.3	1.88 ± 0.023
298.15 K, 101.33 kPa, x2 = 0.4037	1.547 ± 0.019
298.15 K, 101.33 kPa, x2 = 0.5142	1.214 ± 0.015
298.15 K, 101.33 kPa, x2 = 0.6072	0.987 ± 0.013
298.15 K, 101.33 kPa, x2 = 0.7062	0.7626 ± 0.01
298.15 K, 101.33 kPa, x2 = 0.8048	0.58 ± 0.0081
298.15 K, 101.33 kPa, x2 = 0.9026	0.4277 ± 0.0064
298.19 K, 101 kPa, x2 = 0.1987	2.235 ± 0.026
298.19 K, 101 kPa, x2 = 0.3772	1.607 ± 0.019
298.19 K, 101 kPa, x2 = 0.5983	1.001 ± 0.012
298.19 K, 101 kPa, x2 = 0.7982	0.5933 ± 0.0074
298.22 K, 100 kPa, x1 = 0.2	0.584 ± 0.024
318.26 K, 101 kPa, x2 = 0.1976	1.534 ± 0.018
318.26 K, 101 kPa, x2 = 0.3758	1.155 ± 0.014
318.26 K, 101 kPa, x2 = 0.5971	0.7591 ± 0.0093
318.26 K, 101 kPa, x2 = 0.7975	0.4712 ± 0.006
323.13 K, 100 kPa, x1 = 0.6	1.028 ± 0.042

CCOCCOCC + COCCO
viscosity [mPa·s], 101.33 kPa
Settings	298.15 K	308.15 K
x1 = 0.0157	1.497 ± 0.037	1.223 ± 0.031
x2 = 0.0142	0.608 ± 0.017	0.529 ± 0.015
x2 = 0.0354	0.617 ± 0.017	0.539 ± 0.015
x2 = 0.0658	0.631 ± 0.017	0.549 ± 0.016
x2 = 0.0821	0.639 ± 0.018	0.553 ± 0.016
x2 = 0.1085	0.647 ± 0.018	0.561 ± 0.016
x2 = 0.1503	0.663 ± 0.018	0.578 ± 0.016
x2 = 0.2016	0.685 ± 0.019	0.592 ± 0.017
x2 = 0.28	0.723 ± 0.02	0.62 ± 0.017
x2 = 0.3202	0.742 ± 0.02	0.639 ± 0.018
x2 = 0.3604	0.767 ± 0.021	0.655 ± 0.018
x2 = 0.4322	0.812 ± 0.022	0.691 ± 0.019
x2 = 0.4797	0.847 ± 0.022	0.718 ± 0.019
x2 = 0.5152	0.875 ± 0.023	0.739 ± 0.02
x2 = 0.5455	0.901 ± 0.024	0.758 ± 0.02
x2 = 0.5957	0.946 ± 0.025	0.792 ± 0.021
x2 = 0.6464	0.996 ± 0.026	0.832 ± 0.022
x2 = 0.7119	1.066 ± 0.027	0.883 ± 0.023
x2 = 0.7472	1.105 ± 0.028	0.918 ± 0.024
x2 = 0.8023	1.18 ± 0.03	0.969 ± 0.025
x2 = 0.8705	1.275 ± 0.032	1.054 ± 0.027
x2 = 0.9222	1.366 ± 0.034	1.119 ± 0.029
x2 = 0.9592	1.425 ± 0.036	1.167 ± 0.03
